Measurements taken from PubChem BioAssay AID248 (DTP/NCI, 2004).
“And” between values parts separate entries of the source, which are not always exact repeats. Equal values may be shown once. Toxic doses and inconclusive results are not listed. No stated cut-off is given here; in the data, active means T/C of 150% or more; inactive means T/C below 125%.

Test system: L1210 leukemia ip in BDF1 mice, survival T/C
Experiment: NCI In Vivo Anticancer Drug Screen. Data for tumor model L1210 Leukemia (intraperitoneal) in B6D2F1 (BDF1) mice
Conditions: endpoint: mean survival time, higher = longer survival
Procedure, shortened: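 Value reflects the ratio of survival in compound-treated mice to survival in vehicle-treated controls, with both groups carrying the same transplanted tumor.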

[1] = dose: 100.0 mg/kg/injection, schedule: Q01DX001 (ip), vehicle: carboxymethylcellulose (CMC)
[2] = dose: 200.0 mg/kg/injection, schedule: Q01DX001 (ip), vehicle: carboxymethylcellulose (CMC)
[3] = dose: 400.0 mg/kg/injection, schedule: Q01DX001 (ip), vehicle: carboxymethylcellulose (CMC)
[4] = dose: 100.0 mg/kg/injection, schedule: Q01DX009 (ip), vehicle: Klucel (hydroxypropylcellulose) (HPC)
[5] = dose: 100.0 mg/kg/injection, schedule: Q04DX003 (ip), vehicle: Klucel (hydroxypropylcellulose) (HPC)
[6] = dose: 200.0 mg/kg/injection, schedule: Q01DX009 (ip), vehicle: Klucel (hydroxypropylcellulose) (HPC)
[7] = dose: 200.0 mg/kg/injection, schedule: Q04DX003 (ip), vehicle: Klucel (hydroxypropylcellulose) (HPC)
[8] = dose: 400.0 mg/kg/injection, schedule: Q01DX009 (ip), vehicle: Klucel (hydroxypropylcellulose) (HPC)
[9] = dose: 400.0 mg/kg/injection, schedule: Q04DX003 (ip), vehicle: Klucel (hydroxypropylcellulose) (HPC)
[10] = dose: 100.0 mg/kg/injection, schedule: Q01DX009 (ip), vehicle: saline
[11] = dose: 100.0 mg/kg/injection, schedule: Q04DX003 (ip), vehicle: saline with Tween-80
[12] = dose: 200.0 mg/kg/injection, schedule: Q01DX009 (ip), vehicle: saline
[13] = dose: 200.0 mg/kg/injection, schedule: Q04DX003 (ip), vehicle: saline with Tween-80
[14] = dose: 400.0 mg/kg/injection, schedule: Q04DX003 (ip), vehicle: saline with Tween-80
[15] = dose: 75.0 mg/kg/injection, schedule: Q01DX001 (ip), vehicle: other
[16] = dose: 150.0 mg/kg/injection, schedule: Q01DX001 (ip), vehicle: other
[17] = dose: 300.0 mg/kg/injection, schedule: Q01DX001 (ip), vehicle: other
[18] = dose: 100.0 mg/kg/injection, schedule: Q01DX001 (ip), vehicle: saline
[19] = dose: 200.0 mg/kg/injection, schedule: Q01DX001 (ip), vehicle: saline
[20] = dose: 400.0 mg/kg/injection, schedule: Q01DX001 (ip), vehicle: saline
[21] = dose: 100.0 mg/kg/injection, schedule: Q04DX002 (ip), vehicle: Klucel (hydroxypropylcellulose) (HPC)
[22] = dose: 200.0 mg/kg/injection, schedule: Q04DX002 (ip), vehicle: Klucel (hydroxypropylcellulose) (HPC)
[23] = dose: 400.0 mg/kg/injection, schedule: Q04DX002 (ip), vehicle: Klucel (hydroxypropylcellulose) (HPC)
[24] = dose: 100.0 mg/kg/injection, schedule: Q01DX009 (ip), vehicle: saline with Tween-80
[25] = dose: 200.0 mg/kg/injection, schedule: Q01DX009 (ip), vehicle: saline with Tween-80
[26] = dose: 400.0 mg/kg/injection, schedule: Q01DX009 (ip), vehicle: saline with Tween-80

Measured: T/C

Cc1ccc(N(CCO)CCO)cc1NC(=O)c1ccccc1
inactive: [1] 103 % of control | [2] 101 % of control | [3] 101 % of control

CSc1ccccc1C=O
inactive: [4] 114 % of control | [5] 94 % of control | [6] 105 % of control | [7] 95 % of control | [8] 106 % of control | [9] 95 % of control

Cc1cc([N+](=O)[O-])c(NCCOC(=O)c2ccc([N+](=O)[O-])cc2)c([N+](=O)[O-])c1
inactive: [4] 106 % of control | [6] 112 % of control | [8] 98 % of control

O=C(O)C1C2CC3OC(=O)C1C3C2O (stereo unspecified)
inactive: [10] 103 % of control | [11] 96 % of control | [12] 94 % of control | [13] 86 % of control | dose: 400.0 mg/kg/injection, schedule: Q01DX009 (ip), vehicle: saline 100 % of control | [14] 86 % of control

COc1ccc(NC(=O)Oc2ccc(F)cc2)c(OC)c1
inactive: [4] 89 % of control | [6] 101 % of control | [8] 94 % of control

O=[N+]([O-])c1ccc(-n2ncc3cccnc32)c([N+](=O)[O-])c1
inactive: [15] 94 % of control | [16] 100 % of control | [17] 90 % of control

COc1cc(/C=N/NC(=O)N/N=C/c2cc(OC)c(OC)c(OC)c2)cc(OC)c1OC
inactive: [5] 105 % of control | [7] 105 % of control | [9] 108 % of control

Cc1ccc(C(=O)Nc2ccc(OCCCc3c(N)nc(N)nc3N)cc2)cc1S(=O)(=O)F
inactive: dose: 25.0 mg/kg/injection, schedule: Q04DX003 (ip), vehicle: Klucel (hydroxypropylcellulose) (HPC) 103 % of control | dose: 50.0 mg/kg/injection, schedule: Q04DX003 (ip), vehicle: Klucel (hydroxypropylcellulose) (HPC) 97 % of control | [5] 103 % of control

CCOC12c3cc(OC)ccc3N(S(=O)(=O)c3ccc(C)cc3)CC1C2(Br)Br (stereo unspecified)
inactive: [4] 97 % of control | [5] 100 % of control | [6] 87 % of control | [7] 100 % of control | [8] 94 % of control | [9] 91 % of control

Cc1ccc(S(=O)(=O)N2CCOCC2)cc1
inactive: [5] 98 % of control | [7] 100 % of control | [9] 108 % of control

CN1C(=O)C(Br)C(C)(Br)c2ccccc21 (stereo unspecified)
inactive: [18] 93 % of control | [19] 101 % of control | [20] 92 % of control

O=C(CCl)NCc1ccc([N+](=O)[O-])cc1
inactive: dose: 50.0 mg/kg/injection, schedule: Q01DX001 (ip), vehicle: Klucel (hydroxypropylcellulose) (HPC) 100 % of control | dose: 100.0 mg/kg/injection, schedule: Q01DX001 (ip), vehicle: Klucel (hydroxypropylcellulose) (HPC) 103 % of control | dose: 200.0 mg/kg/injection, schedule: Q01DX001 (ip), vehicle: Klucel (hydroxypropylcellulose) (HPC) 101 % of control

CCCCCCSc1ccc2c(cc1=O)C(NC(C)=O)CCc1cc(OC)c(OC)c(OC)c1-2 (stereo unspecified)
inactive: dose: 12.5 mg/kg/injection, schedule: Q04DX002 (ip), vehicle: saline 95 % of control | dose: 25.0 mg/kg/injection, schedule: Q04DX002 (ip), vehicle: saline 95 % of control | dose: 50.0 mg/kg/injection, schedule: Q04DX002 (ip), vehicle: saline 104 % of control

O=C1C=C(c2ccccc2)C(c2ccccc2)C1O (stereo unspecified)
inactive: [15] 102 % of control | [16] 97 % of control

NS(=O)(=O)c1ccccc1C(=O)O
inactive: [10] 96 % of control | [12] 91 % of control

c1ccc2c(c1)C[n+]1ccccc1-2
inactive: [15] 102 % of control

Ic1c2ccccc2cc2ccccc12
inactive: dose: 50.0 mg/kg/injection, schedule: Q04DX002 (ip), vehicle: Klucel (hydroxypropylcellulose) (HPC) 95 % of control and 123 % of control | [21] 103 % of control and 86 % of control | [22] 108 % of control and 92 % of control | [23] 92 % of control

c1ccc(C/C(N=Nc2ccccc2)=N\Nc2ccccc2)cc1
inactive: dose: 50.0 mg/kg/injection, schedule: Q01DX009 (ip), vehicle: Klucel (hydroxypropylcellulose) (HPC) 92 % of control | [4] 92 % of control | [6] 91 % of control | [8] 105 % of control

Cn1c(=O)c2[nH]c(Br)nc2n(C)c1=O
inactive: [4] 90 % of control | [5] 98 % of control | [6] 93 % of control | [7] 111 % of control | [9] 106 % of control

Cc1cc2nc(CC(O)(C(F)(F)F)C(F)(F)F)oc2cc1C
inactive: [11] 96 % of control | [13] 102 % of control | [14] 101 % of control

O=C(O)c1ccc(/C=N/N=C2c3ccccc3-c3ccccc32)cc1
inactive: [15] 91 % of control | [16] 86 % of control | [17] 95 % of control

CC1=CSCC(=O)N1
inactive: [24] 97 % of control | [25] 101 % of control | [26] 105 % of control

CCOC(=O)Nc1cccc(OC(=O)NC)c1
inactive: [11] 100 % of control | [13] 107 % of control | [14] 89 % of control

CCOc1ncc([N+](=O)[O-])c(OCC)n1
inactive: dose: 50.0 mg/kg/injection, schedule: Q01DX001 (ip), vehicle: saline 103 % of control | [18] 106 % of control | [19] 103 % of control | [20] 100 % of control

CC1=CC(=O)C(C(O)(C(F)(F)Cl)C(F)(F)Cl)C(C)(C)C1 (stereo unspecified)
inactive: [4] 98 % of control | [11] 102 % of control | [6] 103 % of control | [13] 96 % of control | [8] 97 % of control | [14] 109 % of control

C/C(=N/OC(=O)N(C)C)c1ccc(Cl)cc1Cl
inactive: dose: 100.0 mg/kg/injection, schedule: Q01DX001 (ip), vehicle: other 107 % of control

Nc1ccc(S(=O)(=O)Nc2ccccn2)cc1
inactive: [21] 102 % of control | [22] 98 % of control | [23] 98 % of control

CC(C)c1cc(C(C)C)n2nc(N)nc2n1
inactive: [24] 96 % of control | [25] 102 % of control | [26] 105 % of control

CC(=O)Nc1nc(SCc2ccccc2)c2c(no[n+]2[O-])n1
inactive: dose: 100.0 mg/kg/injection, schedule: Q04DX002 (ip), vehicle: saline with Tween-80 97 % of control | dose: 200.0 mg/kg/injection, schedule: Q04DX002 (ip), vehicle: saline with Tween-80 116 % of control

c1ccc(COP(c2ccccc2)c2ccccc2)cc1
inactive: dose: 25.6 mg/kg/injection, schedule: Q04DX002 (ip), vehicle: saline with Tween-80 100 % of control | dose: 64.0 mg/kg/injection, schedule: Q04DX002 (ip), vehicle: saline with Tween-80 96 % of control | dose: 160.0 mg/kg/injection, schedule: Q04DX002 (ip), vehicle: saline with Tween-80 100 % of control | dose: 400.0 mg/kg/injection, schedule: Q04DX002 (ip), vehicle: saline with Tween-80 100 % of control

CN1COc2c(nc(-c3ccccc3)[nH]c2=O)C1
inactive: dose: 50.0 mg/kg/injection, schedule: Q01DX001 (ip), vehicle: carboxymethylcellulose (CMC) 101 % of control | [1] 98 % of control | [2] 98 % of control | [3] 95 % of control

O=C(O)C1(NC2CCCCC2)CCCCC1
inactive: dose: 5.0 mg/kg/injection, schedule: Q01DX Z (ip), vehicle: methylcellulose (MC) 104 % of control | dose: 10.0 mg/kg/injection, schedule: Q01DX Z (ip), vehicle: methylcellulose (MC) 114 % of control | dose: 20.0 mg/kg/injection, schedule: Q01DX Z (ip), vehicle: methylcellulose (MC) 99 % of control | dose: 40.0 mg/kg/injection, schedule: Q01DX Z (ip), vehicle: methylcellulose (MC) 100 % of control | dose: 80.0 mg/kg/injection, schedule: Q01DX Z (ip), vehicle: methylcellulose (MC) 99 % of control

O=C(NCCCl)Nc1cccc2c(O)cccc12
inactive: [5] 98 % of control | [7] 96 % of control | [9] 107 % of control

CC12CCC3c4ccc(OCC5CO5)cc4CCC3C1CCC2=O (stereo unspecified)
inactive: dose: 50.0 mg/kg/injection, schedule: Q01DX009 (ip), vehicle: saline with Tween-80 97 % of control | [24] 97 % of control | [25] 94 % of control
